Measurements from US7776828B2, “Radiation therapy methods” (University of Southern California, priority 1998, dated 2010).
“Also recorded” adds a separate entry of the source. Non-standard residues stand in square brackets, D forms with d. No end group written: not given here. Phe(4-NH2) = Nc1ccc(C[C@H](N)C(=O)O)cc1

Tests used:
C57B1/6 mice = experiment: Survival and white blood cell number of mice receiving bone marrow transplantation after lethal irradiation; format: in vivo
Experimental: Donor C57B1/6 mice (female, 6-8 weeks old) were irradiated with 600 cGy total body irradiation. Starting on the day of irradiation, the mice received either saline (0.1 ml) or 20 μg/ml angiotensin II (0.1 ml, 100 μg/kg) subcutaneously for fourteen days. At the end of this period, the bone marrow was harvested from the femur by flushing and the number of viable nucleated cells determined by counting under a light microscope on a hemacytometer in the presence of trypan blue.
These donor bone marrow cells were then injected intravenously into recipient mice (female C57B1/6, 6-8 weeks old) that had been lethally irradiated (900 cGy total body irradiation) at two concentrations: 1×10^6 or 1×10^5 cells per mouse. After injection, the recipient mice received either saline or 100 μg/kg AII subcutaneously until death or termination. The study design in its entirety is as follows:
The survival of the mice and the number of circulating white blood cells were measured as a function of time post-bone marrow transplantation.

Female C57B1/6 mice [1] = experiment: Blood cell recovery after irradiation (white blood cells, megakaryocytes, monocytes, neutrophils, lymphocytes); format: in vivo
Experimental: (§1) Female C57B1/6 mice (Jackson Labs, Bar Harbor, Me.) were irradiated with 600 cGy total body irradiation. Subcutaneous injection with either AII (10 μg/kg/day or 100 μg/kg/day) or saline (placebo) was initiated two days before (−day 2), on the day of (day 0) or 2 days after (+day 2) irradiation and continued until the animals succumbed to the irradiation or were necropsied. At various times after irradiation, the mice were anaesthetized with Metofane (Pittman-Moore Animal Health, NZ) and bled via the retro-orbital sinus. Red blood cells were lysed with 0.3% acetic acid and the number of white blood cells was determined by counting with a hemacytometer. […] Furthermore, AII administration at all time periods tested increased the number of circulating white blood cells (FIGS. 4-6).

Female C57B1/6 mice [2] = experiment: Post-irradiation mouse mortality/survival (600 cGy total body irradiation); format: in vivo
Experimental: as §1

wound tissue = conditions: application to wound tissue; cited from earlier work
[3] = test system: cultured cells that are involved in wound repair; conditions: cited from earlier work
rabbit corneal eye = rabbit corneal eye model; cited from earlier work
AT2 receptor = conditions: cited from earlier work
[4] = test system: chick chorioallantoic membrane; conditions: chick chorioallantoic membrane model; cited from earlier work
[5] = Effectiveness testing of AII fragments (test not specified); conditions: test not described
[6] = recipients 900 cGy, AII 100 μg/kg s.c. to donor and/or recipient

## Asp-Arg-Val-Tyr-Ile-His-Pro-Phe (DRVYIHPF) [AII]
C57B1/6 mice; [6]
  number of circulating white blood cells post-bone marrow transplantation: increased
  survival post-bone marrow transplantation: increased
C57B1/6 mice; treatment of both the donor bone marrow cells and the recipient mice with AII
  benefit (survival and white blood cell number): greatest benefit
Female C57B1/6 mice [1]; after 600 cGy irradiation, FIGS. 7-9
  number of megakaryocytes: increased
Female C57B1/6 mice [1]; after 600 cGy irradiation, FIGS. 10-12
  number of monocytes: increased
Female C57B1/6 mice [1]; after 600 cGy irradiation, FIGS. 13-15
  number of neutrophils: increased
Female C57B1/6 mice [1]; after 600 cGy irradiation, FIGS. 16-18
  number of lymphocytes: increased
Female C57B1/6 mice [1]; all time periods tested (-day 2, day 0, +day 2), 600 cGy, FIGS. 4-6
  number of circulating white blood cells: increased
Female C57B1/6 mice [2]; AII 10 or 100 μg/kg/day s.c. starting on the day of irradiation (day 0), FIG. 2
  survival after irradiation: substantially increased survival
Female C57B1/6 mice [2]; AII 10 or 100 μg/kg/day s.c. starting two days after irradiation (+day 2), FIG. 3
  survival after irradiation: substantially increased survival
Female C57B1/6 mice [2]; AII 10 or 100 μg/kg/day s.c. starting two days prior to irradiation (-day 2), FIG. 1
  protection against mortality resulting from irradiation: did not protect against mortality
Wound tissue
  rate of wound healing: significantly increases
[3]
  mitogenesis and chemotaxis: increases
  release of growth factors and extracellular matrices: increases
Rabbit corneal eye
  angiogenic activity: angiogenic
AT2 receptor; selectivity AT2 over AT1
  affinity for AT2 than AT1: 100 times
[4]
  angiogenic activity: angiogenic

## Asp-Arg-Val-Tyr-Ile-Xaa-Pro-Phe (DRVYI[Phe(4-NH2)]PF) [p-aminophenylalanine6-AII, reference compound]
AT2 receptor; compared with AT2 antagonists in the experimental models tested
  binding characteristics: comparable to AT2 antagonists

## His-Pro-Phe (HPF) [AII(6-8)]
[5]
  effectiveness: not to be effective

## Tyr-Ile-His-Pro-Phe (YIHPF) [AII(4-8)]
[5]
  effectiveness: not to be effective; also recorded: ineffective
